Reference: the NIST ThermoML archive (doi:10.1021/je049672l)

Details: for mass density: Vibrating tube method; for vapor or sublimation pressure: Closed cell (Static) method

CCC [propane]
Fluid (supercritical or subcritical phases)
Details	mass density [kg/m3]
240 K, 527.3 kPa	570.78
240 K, 1044.8 kPa	571.46
240 K, 1522.4 kPa	572.08
240 K, 1978.3 kPa	572.68
240 K, 2477.9 kPa	573.32
240 K, 2999.9 kPa	573.98
240 K, 3513 kPa	574.62
240 K, 4045.7 kPa	575.29
240 K, 4504.5 kPa	575.85
240 K, 4957.8 kPa	576.41
240 K, 5475.7 kPa	577.04
240 K, 6018.3 kPa	577.69
240 K, 6523.2 kPa	578.3
240 K, 7043.3 kPa	578.91
250 K, 513.8 kPa	558.73
250 K, 1008.1 kPa	559.47
250 K, 1508.3 kPa	560.2
250 K, 2008.3 kPa	560.93
250 K, 2524.1 kPa	561.67
250 K, 3016.9 kPa	562.38
250 K, 3503.7 kPa	563.05
250 K, 3993.1 kPa	563.74
250 K, 4478.5 kPa	564.4
250 K, 5045.1 kPa	565.17
250 K, 5495.4 kPa	565.78
250 K, 5999.9 kPa	566.46
250 K, 6543.5 kPa	567.17
250 K, 7010.3 kPa	567.78
260 K, 506.6 kPa	546.1
260 K, 1013.8 kPa	546.96
260 K, 1503.5 kPa	547.77
260 K, 1999.7 kPa	548.6
260 K, 2504.5 kPa	549.42
260 K, 3012.1 kPa	550.24
260 K, 3513.3 kPa	551.04
260 K, 4020 kPa	551.84
260 K, 4498.9 kPa	552.58
260 K, 5014.5 kPa	553.38
260 K, 5513.9 kPa	554.12
260 K, 6028.2 kPa	554.89
260 K, 6522.8 kPa	555.62
260 K, 7048.9 kPa	556.4
270 K, 504.7 kPa	532.93
270 K, 1012.9 kPa	533.91
270 K, 1510.4 kPa	534.87
270 K, 2005.4 kPa	535.83
270 K, 2499.6 kPa	536.75
270 K, 3017.5 kPa	537.7
270 K, 3497.1 kPa	538.57
270 K, 4018.8 kPa	539.5
270 K, 4488.2 kPa	540.32
270 K, 5023.8 kPa	541.26
270 K, 5504.7 kPa	542.05
270 K, 6021.1 kPa	542.91
270 K, 6525.8 kPa	543.74
270 K, 7024.1 kPa	544.55
280 K, 1000 kPa	520.1
280 K, 1466.1 kPa	521.15
280 K, 1964.2 kPa	522.28
280 K, 2513 kPa	523.49
280 K, 3032.9 kPa	524.61
280 K, 3519.3 kPa	525.6
280 K, 4049.7 kPa	526.68
280 K, 4527.5 kPa	527.65
280 K, 4963.1 kPa	528.5
280 K, 5443.4 kPa	529.45
280 K, 5982.8 kPa	530.51
280 K, 6522.6 kPa	531.56
280 K, 7034.7 kPa	532.51
290 K, 1499.4 kPa	506.71
290 K, 2004.4 kPa	508.04
290 K, 2510 kPa	509.33
290 K, 2998.9 kPa	510.56
290 K, 3484 kPa	511.74
290 K, 4018.1 kPa	513.03
290 K, 4476.9 kPa	514.12
290 K, 5036.3 kPa	515.41
290 K, 5531.4 kPa	516.52
290 K, 5957.4 kPa	517.46
290 K, 6525.4 kPa	518.7
290 K, 7049.2 kPa	519.81
300 K, 1517.7 kPa	491.19
300 K, 2015.2 kPa	492.77
300 K, 2519.2 kPa	494.32
300 K, 3032.3 kPa	495.86
300 K, 3486.3 kPa	497.18
300 K, 4036.8 kPa	498.73
300 K, 4462.1 kPa	499.91
300 K, 4937 kPa	501.23
300 K, 5518.9 kPa	502.75
300 K, 6063.5 kPa	504.2
300 K, 6496.7 kPa	505.29
300 K, 7004.4 kPa	506.54
310 K, 1514.4 kPa	473.96
310 K, 2018.8 kPa	475.98
310 K, 2491.2 kPa	477.78
310 K, 3012.9 kPa	479.7
310 K, 3515 kPa	481.48
310 K, 4040.6 kPa	483.29
310 K, 4528.9 kPa	484.91
310 K, 5029.4 kPa	486.52
310 K, 5529.3 kPa	488.08
310 K, 6046.3 kPa	489.64
310 K, 6510.1 kPa	491.02
310 K, 6991.8 kPa	492.41
320 K, 2011.4 kPa	457.17
320 K, 2513.8 kPa	459.66
320 K, 3002.1 kPa	461.96
320 K, 3495.1 kPa	464.17
320 K, 4025.8 kPa	466.44
320 K, 4519.6 kPa	468.46
320 K, 5017.9 kPa	470.44
320 K, 5536.8 kPa	472.4
320 K, 6024.8 kPa	474.19
320 K, 6523.4 kPa	475.95
320 K, 7008.9 kPa	477.63
330 K, 2033.9 kPa	435.23
330 K, 2537.4 kPa	438.74
330 K, 3032 kPa	441.91
330 K, 3546.3 kPa	445
330 K, 3909.1 kPa	447.05
330 K, 3995.4 kPa	447.53
330 K, 4495.8 kPa	450.17
330 K, 4996.1 kPa	452.66
330 K, 5488.6 kPa	455.01
330 K, 6010.6 kPa	457.38
330 K, 6499.8 kPa	459.5
330 K, 6985.1 kPa	461.52
340 K, 3024.2 kPa	417.87
340 K, 3507.8 kPa	422.07
340 K, 4014 kPa	426.05
340 K, 4501.8 kPa	429.56
340 K, 5027.1 kPa	433.06
340 K, 5516.7 kPa	436.1
340 K, 5985 kPa	438.83
340 K, 6494.7 kPa	441.64
340 K, 6964.1 kPa	444.1
350 K, 3541.2 kPa	393.49
350 K, 4011.9 kPa	399.51
350 K, 4505.9 kPa	404.94
350 K, 5024.8 kPa	409.94
350 K, 5521.6 kPa	414.24
350 K, 6027.1 kPa	418.22
350 K, 6491.4 kPa	421.59
350 K, 6978.1 kPa	424.88
360 K, 4043.5 kPa	362.08
360 K, 4527.8 kPa	372.52
360 K, 5043 kPa	380.99
360 K, 5524.7 kPa	387.51
360 K, 6048.5 kPa	393.63
360 K, 6529.9 kPa	398.56
360 K, 6953.8 kPa	402.5
370 K, 779.8 kPa	11.91
370 K, 1089.1 kPa	17.21
370 K, 1515.9 kPa	25.15
370 K, 2081.6 kPa	37.08
370 K, 2783.7 kPa	55.36
370 K, 4325.4 kPa	287.46
370 K, 4521.7 kPa	312.65
370 K, 4996.9 kPa	336.94
370 K, 5527.4 kPa	352.01
370 K, 5998 kPa	361.65
370 K, 6504.8 kPa	369.98
370 K, 7066.4 kPa	377.66
380 K, 813.8 kPa	12.27
380 K, 1223.8 kPa	19.12
380 K, 1564.3 kPa	25.22
380 K, 2032 kPa	34.39
380 K, 2630.4 kPa	47.9
380 K, 3340.1 kPa	67.96
380 K, 4059 kPa	97.16
380 K, 4059.9 kPa	97.18
380 K, 4060.6 kPa	97.22
380 K, 4556.5 kPa	131.82
380 K, 5335.4 kPa	273.87
380 K, 5530.3 kPa	291.64
380 K, 6044.5 kPa	318.37
380 K, 6541.5 kPa	333.99
380 K, 7012.1 kPa	344.89

Liquid
Details	mass density [kg/m3]	vapor or sublimation pressure [kPa]
240 K	570.28	147.9
250 K	558.29	217.7
260 K	545.77	310.3
270 K	532.67	429.6
290 K	504.75	768.6
300 K	489.48	997.6
310 K	472.96	1272.1
320 K	455	1600.7
330 K	434.9	1988.8
340 K	411.92	2429.7
350 K	384.39	2948
360 K	347.97	3552.2
